# According to PMC5442318, “Hundreds of dual-stage antimalarial molecules discovered by a functional gametocyte screen” (Nature Communications, 2017):
# Assays:
# [1] = Intrinsic clearance assay; format: in vitro ADME; conditions: mouse liver microsomes, 0.5 μM
# Description: Intrinsic clearance (CLi) values were determined in mouse liver microsomes (M1000, XenoTech). Test compounds (final concentration 0.5 μM) were incubated at 37 °C for 45 min in 50 mM potassium phosphate buffer (pH 7.4) containing 0.5 mg microsomal protein per ml. The reaction was started by addition of cofactor NADPH ([…], Sigma) at 1 mM final concentration. The final concentration of organic solvent (DMSO) was limited to 0.25% of the final volume. At 0, 5, 15, 30, and 45 min, an aliquot (100 μl) was taken, quenched with acetonitrile containing an appropriate internal standard, and analysed by HPLC-MS/MS (Applied Biosystems). CLi was determined from the first-order elimination constant by nonlinear regression, corrected for the volume of the incubation and assuming […] mouse protein per g liver. Values for CLi were expressed as ml min^-1 per g liver.
# [2] = In vivo pharmacokinetic study, single oral dose; set-up: species or system CD-1 mice
# Description: Female CD-1 mice (Harlan Interfauna Iberica) at 8 weeks of age were used for single oral dose pharmacokinetic studies (n=2). Dosing solutions were prepared in 20% (v:v) Captisol in water, at a target dose of 50 mg kg^−1 (dose volume of 20 ml kg^−1). After oral dosing, blood samples (25 μl) were collected at 30 min, 1 h, 6 h and 8 h post dose for TCMDC-123767. All the blood samples were diluted with 25 μl of an aqueous solution of saponine 1% (w:v), and stored at −80 °C until analysis. Mice blood samples were analysed for each compound using a method upon protein precipitation followed by LC-MS/MS analysis (Applied Biosystems). Data analysis of the concentration time profiles was performed by noncompartmental methods by using WinNonLin Phoenix Version 6.3.
smiles,measurement,setting,value
FC(F)(F)c1cnc(Sc2nnc(-c3ccncc3)o2)c(Cl)c1 [TCMDC-123767],in vitro microsome clearance,[1],7.9 ml min^−1 per g liver
same,elimination in vivo,"[2]; oral 50 mg kg^−1, mouse",rapidly eliminated
same,exposure levels in blood,"[2]; oral 50 mg kg^−1, mouse",very low
same,last detected in blood above the lower limit of quantification (time post-administration),"[2]; oral 50 mg kg^−1, mouse blood, LLOQ 2.5 ng ml^−1",1 h
